Reference: patent publication US8916702B2 (priority 2012, dated 2014)
Where two headings read alike, the source gives them in different places.

Tested on: HCV pseudoparticles (genotype 1a HCV E1 and E2 envelope, H77C isolate)
Assay: microbe, parasite or virus in culture
Assay type: cell-based
Conditions: Hepatitis C virus
[1] = Huh-7, read-out: Activity (EC50 class), HCV pseudoparticles (genotype 1a, H77C) in Huh7 cells, EC50 expressed as class A/B
[2] = Huh-7, 48 h, HCV pseudoparticle infection of Huh7 cells, luciferase 2 days after infection, average of duplicates
[3] = Huh-7, 48 h, read-out: Activity (EC50 class), HCV pseudoparticle infection of Huh7 cells, luciferase 2 days after infection, EC50 expressed as class A/B
[4] = Huh-7, 48 h, HCV pseudoparticles, Huh7 cells, luciferase 2 days after infection, average of duplicates
[5] = Huh-7, 48 h, read-out: Activity (EC50 class), HCV pseudoparticles, Huh7 cells, luciferase 2 days after infection, average of duplicates
[6] = Huh-7, 48 h, HCV pseudoparticles (genotype 1a, H77C) in Huh7 cells, average of duplicate, luciferase 2 days after infection

Row | Structure (SMILES) | EC50 [1] [nM] | EC50 [3] [nM] | also measured
1 | CN(CCCN(C)C(=O)c1ccc(Nc2nc(NC3(c4ccc(Cl)cc4)CC3)nc(OCC(F)(F)F)n2)cc1)C(=O)C(=O)Nc1ccc(F)cc1 [Compound 3412] | 0.01 to 10 | – | –
2 | COC(=O)[C@H](CCNC(=O)C(=O)Nc1ccc(N2Cc3ccccc3C2)cc1)NC(=O)c1ccc(Nc2nc(NC3(c4ccc(Cl)cc4)CC3)nc(OCC(F)(F)F)n2)cc1 [Compound 3306] | 0.01 to 10 | – | –
3 | COC(=O)[C@H](CNC(=O)C(=O)NCc1cccc(OC)c1)NC(=O)c1ccc(Nc2nc(NC3(c4ccc(Cl)cc4)CC3)nc(OCC(F)(F)F)n2)cc1 [Compound 1151] | – | 0.01 to 10 | EC50 [2]: 1.62 nM
4 | O=C(NC[C@H](NC(=O)c1ccc(Nc2nc(NC3(c4ccc(Cl)cc4)CC3)nc(OCC(F)(F)F)n2)cc1)C(=O)O)C(=O)Nc1ccc(C(F)(F)F)cc1 [Compound 1363] | – | 0.01 to 10 | –
5 | COC(=O)[C@H](CNC(=O)C(=O)Nc1cccc(Oc2ccccc2)c1)NC(=O)c1ccc(Nc2nc(NC3(c4ccc(Cl)cc4)CC3)nc(OCC(F)(F)F)n2)cc1 [Compound 3694] | – | – | EC50 [4]: 2.23 nM; EC50 [5]: 0.01 to 10 nM
6 | COC(=O)[C@H](CCNC(=O)C(=O)Nc1ccc(-n2cnc(Cl)c2Cl)cc1)NC(=O)c1ccc(Nc2nc(NC3(c4ccc(Cl)cc4)CC3)nc(OCC(F)(F)F)n2)cc1 [Compound 3124] | 0.01 to 10 | – | EC50 [6]: 18.2 nM
7 | COC(=O)[C@@H](CCNC(=O)C(=O)Nc1ccc(Oc2ccc(C(C)(C)C)cc2)nc1)NC(=O)c1ccc(Nc2nc(NC3(c4ccc(Cl)cc4)CC3)nc(OCC(F)(F)F)n2)cc1 [Compound 3581] | 0.01 to 10 | – | –
8 | O=C(NCCC(NC(=O)c1ccc(Nc2nc(NC3(c4ccc(Cl)cc4)CC3)nc(OCC(F)(F)F)n2)cc1)C(=O)O)C(=O)Nc1ccc(-c2cc[nH]n2)cc1 (stereo not shown) [Compound 3531] | 0.01 to 10 | – | –
9 | COC(=O)[C@H](CCNC(=O)C(=O)NCc1ccc(F)cc1F)NC(=O)c1ccc(Nc2nc(NC3(c4ccc(Cl)cc4)CC3)nc(OCC(F)(F)F)n2)cc1 [Compound 1161] | – | 0.01 to 10 | –
10 | CCC1(CC)CC1CNC(=O)C(=O)NCC[C@H](NC(=O)c1ccc(Nc2nc(NC3(c4ccc(Cl)cc4)CC3)nc(OCC(F)(F)F)n2)cc1)C(=O)OC (stereo partly shown) [Compound 1199] | – | 0.01 to 10 | EC50 [2]: 0.19 nM
11 | COC(=O)[C@H](CCNC(=O)C(=O)Nc1ccc(C(F)(F)F)cc1)NC(=O)c1ccc(Nc2nc(NC3(c4ccc(Cl)cc4)CC3)nc(OCC(F)(F)F)n2)cc1 [Compound 1233] | – | 0.01 to 10 | –
12 | COC(=O)[C@H](CCNC(=O)C(=O)Nc1cccc(Cl)c1)NC(=O)c1ccc(Nc2nc(NC3(c4ccc(Cl)cc4)CC3)nc(OCC(F)(F)F)n2)cc1 [Compound 1499] | – | 0.01 to 10 | –
13 | CC(C)CNC(=O)C(=O)NCC(O)CNC(=O)c1ccc(Nc2nc(NC3(c4ccc(Cl)cc4)CC3)nc(OCC(F)(F)F)n2)cc1 (stereo not shown) [Compound 3467] | 0.01 to 10 | – | –
14 | CC(C)(CNC(=O)C(=O)Nc1nc2c(Cl)c(Cl)ccc2s1)CNC(=O)c1ccc(Nc2nc(NC3(c4ccc(Cl)cc4)CC3)nc(OCC(F)(F)F)n2)cc1 [Compound 3821] | – | – | EC50 [5]: 0.01 to 10 nM
15 | Cc1cc(NC(=O)C(=O)NCC(C)(C)CNC(=O)c2ccc(Nc3nc(NC4(c5ccc(Cl)cc5)CC4)nc(OCC(F)(F)F)n3)cc2)sn1 [Compound 3010] | 0.01 to 10 | – | EC50 [6]: 0.014 nM
16 | Cc1cc(C)n(-c2ccc(NC(=O)C(=O)NC/C(=N/C(=O)c3ccc(Nc4nc(NC5(c6ccc(Cl)cc6)CC5)nc(OCC(F)(F)F)n4)cc3)C(=O)O)cc2)n1 [Compound 3174] | 0.01 to 10 | – | –
17 | COc1cc(F)ccc1NC(=O)C(=O)NCC(C)(C)CNC(=O)c1ccc(Nc2nc(NC3(c4ccc(Cl)cc4)CC3)nc(OCC(F)(F)F)n2)cc1 [Compound 3075] | 0.01 to 10 | – | –
18 | Cc1nccn1Cc1ccc(NC(=O)C(=O)NCC[C@H](NC(=O)c2ccc(Nc3nc(NC4(c5ccc(Cl)cc5)CC4)nc(OCC(F)(F)F)n3)cc2)C(=O)O)cc1 [Compound 3542] | 10 to 1000 | – | –
19 | CC(CNC(=O)C(N)=O)CNC(=O)c1ccc(Nc2nc(NC3(c4ccc(Cl)cc4)CC3)nc(OCC(F)(F)F)n2)cc1 (stereo not shown) [Compound 3345] | 0.01 to 10 | – | –
20 | COCc1ccc(NC(=O)C(=O)NC[C@H](NC(=O)c2ccc(Nc3nc(NC4(c5ccc(Cl)cc5)CC4)nc(OCC(F)(F)F)n3)cc2)C(=O)OC)cc1 [Compound 3205] | 0.01 to 10 | – | –
21 | COC(=O)[C@H](CNC(=O)C(=O)Nc1ccncc1)NC(=O)c1ccc(Nc2nc(NC3(c4ccc(Cl)cc4)CC3)nc(OCC(F)(F)F)n2)cc1 [Compound 1258] | – | 0.01 to 10 | –
22 | COC(=O)[C@H](CCNC(=O)C(=O)Nc1ccc(F)cc1F)NC(=O)c1ccc(Nc2nc(NC3(c4ccc(Cl)cc4)CC3)nc(OCC(F)(F)F)n2)cc1 [Compound 1501] | – | 0.01 to 10 | –

Row | Structure (SMILES) | EC50 [1] [nM] | EC50 [3] [nM] | also measured
23 | CN(CCCNC(=O)c1ccc(Nc2nc(NC3(c4ccc(Cl)cc4)CC3)nc(OCC(F)(F)F)n2)cc1)C(=O)C(=O)Nc1ccc(F)cc1F [Compound 3449] | 0.01 to 10 | – | –
24 | COc1ccccc1NC(=O)C(=O)NCC(C)(C)CNC(=O)c1ccc(Nc2nc(NC3(c4ccc(Cl)cc4)CC3)nc(OCC(F)(F)F)n2)cc1 [Compound 3006] | 0.01 to 10 | – | –
25 | Cc1cc(NC(=O)C(=O)NC(C)(C)CNC(=O)c2ccc(Nc3nc(NC4(c5ccc(Cl)cc5)CC4)nc(OCC(F)(F)F)n3)cc2)no1 [Compound 3422] | 0.01 to 10 | – | –
26 | O=C(NCC[C@H](NC(=O)c1ccc(Nc2nc(NC3(c4ccc(Cl)cc4)CC3)nc(OCC(F)(F)F)n2)cc1)C(=O)O)C(=O)Nc1ccccc1 [Compound 1433] | – | 0.01 to 10 | –
27 | O=C(NCc1ccc(F)cc1)C(=O)NC[C@H](NC(=O)c1ccc(Nc2nc(NC3(c4ccc(Cl)cc4)CC3)nc(OCC(F)(F)F)n2)cc1)C(=O)O [Compound 1166] | – | 0.01 to 10 | –
28 | Cc1cc(Cl)ccc1NC(=O)C(=O)NCC(C)(C)CNC(=O)c1ccc(Nc2nc(NC3(c4ccc(Cl)cc4)CC3)nc(OCC(F)(F)F)n2)cc1 [Compound 3057] | 0.01 to 10 | – | –
29 | O=C(NC[C@H](NC(=O)c1ccc(Nc2nc(NC3(c4ccc(Cl)cc4)CC3)nc(OCC(F)(F)F)n2)cc1)C(=O)O)C(=O)Nc1cccc(S(=O)(=O)C(F)(F)F)c1 [Compound 3766] | – | – | EC50 [5]: 0.01 to 10 nM
30 | CC(C)(CNC(=O)C(=O)Nc1ccc(C(F)(F)F)cc1)CNC(=O)c1ccc(Nc2nc(NC3(c4ccc(Cl)cc4)CC3)nc(OCC(F)(F)F)n2)cc1 [Compound 3011] | 0.01 to 10 | – | –
31 | CCCc1ccc(NC(=O)C(=O)NCC(C)(C)CNC(=O)c2ccc(Nc3nc(NC4(c5ccc(Cl)cc5)CC4)nc(OCC(F)(F)F)n3)cc2)cc1 [Compound 1573] | – | 0.01 to 10 | –
32 | O=C(Nc1ccccc1)C(=O)N[C@H](CCNC(=O)c1ccc(Nc2nc(NC3(c4ccc(Cl)cc4)CC3)nc(OCC(F)(F)F)n2)cc1)C(=O)O [Compound 3494] | 0.01 to 10 | – | –
33 | COC(=O)[C@H](CCNC(=O)C(=O)NCC1CC1(Cl)Cl)NC(=O)c1ccc(Nc2nc(NC3(c4ccc(Cl)cc4)CC3)nc(OCC(F)(F)F)n2)cc1 (stereo partly shown) [Compound 1372] | – | 0.01 to 10 | –
34 | O=C(NCC[C@H](NC(=O)c1ccc(Nc2nc(NC3(c4ccc(Cl)cc4)CC3)nc(OCC(F)(F)F)n2)cc1)C(=O)O)C(=O)NC1(Cc2ccccc2)CC1 [Compound 1346] | – | 0.01 to 10 | –
35 | Cc1ccc(NC(=O)C(=O)N(C)CCCNC(=O)c2ccc(Nc3nc(NC4(c5ccc(Cl)cc5)CC4)nc(OCC(F)(F)F)n3)cc2)cc1 [Compound 3445] | 0.01 to 10 | – | EC50 [6]: 0.061 nM
36 | NS(=O)(=O)c1ccc(NC(=O)C(=O)NC/C(=N/C(=O)c2ccc(Nc3nc(NC4(c5ccc(Cl)cc5)CC4)nc(OCC(F)(F)F)n3)cc2)C(=O)O)cc1 [Compound 3155] | 0.01 to 10 | – | –
37 | CN(C)C(=O)C(=O)NC[C@H](NC(=O)c1ccc(Nc2nc(NC3(c4ccc(Cl)cc4)CC3)nc(OCC(F)(F)F)n2)cc1)C(=O)O [Compound 1007, (S)-2-(4-(4-(1-(4-chlorophenyl)cyclopropylamino)-6-(2,2,2-trifluoroethoxy)-1,3,5-triazin-2-ylamino)benzamido)-3-(2-(dimethylamino)-2-oxoacetamido)propanoic acid] | – | 0.01 to 10 | –
38 | CNC(=O)C(=O)NC[C@H](NC(=O)c1ccc(Nc2nc(NC3(c4ccc(Cl)cc4)CC3)nc(OCC(F)(F)F)n2)cc1)C(=O)OC [Compound 1003, (S)-methyl 2-(4-(4-(1-(4-chlorophenyl)cyclopropylamino)-6-(2,2,2-trifluoroethoxy)-1,3,5-triazin-2-ylamino)benzamido)-3-(2-(methylamino)-2-oxoacetamido)propanoate] | – | 0.01 to 10 | –
39 | COC(=O)[C@H](CNC(=O)C(=O)Nc1ccc(OCCN2C(=O)c3ccccc3C2=O)nc1)NC(=O)c1ccc(Nc2nc(NC3(c4ccc(Cl)cc4)CC3)nc(OCC(F)(F)F)n2)cc1 [Compound 3682] | – | – | EC50 [4]: 0.31 nM; EC50 [5]: 0.01 to 10 nM
40 | COC(=O)[C@H](CNC(=O)C(=O)Nc1cccc(CCc2ccccn2)c1)NC(=O)c1ccc(Nc2nc(NC3(c4ccc(Cl)cc4)CC3)nc(OCC(F)(F)F)n2)cc1 [Compound 3713] | – | – | EC50 [5]: 0.01 to 10 nM
41 | COC(=O)[C@H](CCNC(=O)C(=O)NCC1CC1)NC(=O)c1ccc(Nc2nc(NC3(c4ccc(Cl)cc4)CC3)nc(OCC(F)(F)F)n2)cc1 [Compound 1196] | – | 0.01 to 10 | –
42 | O=C(Nc1ccc(F)cc1)C(=O)N1CCCC(CNC(=O)c2ccc(Nc3nc(NC4(c5ccc(Cl)cc5)CC4)nc(OCC(F)(F)F)n3)cc2)C1 (stereo not shown) [Compound 3482] | 0.01 to 10 | – | –
43 | CCOC(=O)[C@H](CNC(=O)C(N)=O)NC(=O)c1ccc(Nc2nc(NC3(c4ccc(Cl)cc4)CC3)nc(OCC(F)(F)F)n2)cc1 [Compound 1025, (S)-ethyl 3-(2-amino-2-oxoacetamido)-2-(4-(4-(1-(4-chlorophenyl)cyclopropylamino)-6-(2,2,2-trifluoroethoxy)-1,3,5-triazin-2-ylamino)benzamido)propanoate] | – | 0.01 to 10 | EC50 [2]: 1.73 nM
44 | O=C(NCC[C@H](NC(=O)c1ccc(Nc2nc(NC3(c4ccc(Cl)cc4)CC3)nc(OCC(F)(F)F)n2)cc1)C(=O)O)C(=O)NCC1CC1c1cc(F)ccc1F (stereo partly shown) [Compound 1442] | – | 0.01 to 10 | –
